In US11046932B2, “Method of producing renal cells from differentiated cells” (priority 2016, dated 2021):

Tests used:
[1] = test system: mouse embryonic fibroblasts (MEFs); test: Reprogramming efficiency: GFP-positive cells by flow cytometry in KSP-Cre mTOM/mGFP reporter MEFs; format: cell-based; settings: added to culture medium of 4TF treated MEFs for 7 days: Vitamin C 50 μg/ml, CHIR99021 3 μM, Forskolin 10 μM, Valproic Acid 1 mM, 5-Azacytidine 2 μM
Method: Next, we expressed candidate transcription factors in isolated MEFs by lentiviral transduction and analyzed GFP reporter-expression by flow cytometry (FIG. 2a and FIG. 11a).
Tissue was minced with a scalpel and digested with 0.25% Trypsin-EDTA for 30 min at 37° C. Trypsinization was stopped by addition of MEF Medium (MEFM: Dulbecco's modified Eagle's medium (DMEM), 10% fetal bovine serum (FBS), 2 mM L-glutamine, penicillin/streptomycin). After resuspension the cells were centrifuged and the pellet was resuspended in MEFM and plated on gelatine-coated 6-well plates for 3 days until they reached confluency. […] MEFs, TTFs and human fibroblasts were frozen in liquid nitrogen and used without further passaging for reprogramming experiments. For efficiency improvement experiments the following substances were added to the cell culture medium for 7 days: Vitamin C (Sigma, 50 μg/ml); CHIR99021 (Sigma, 3 μM); Forskolin (FocusBiomolecules, 10 μM); Valproic Acid (Sigma, 1 mM); 5-Azacytidine (Sigma, 2 μM).
For the infection of MEFs, TTFs, HFoFs and HFeFs virus concentrate was diluted 1:100 (high viral titers) to 1:1000 (low viral titers) in MEFM containing 10 μg/ml Polybrene and cells were incubated for 12 h. Viral infection was repeated five to seven times. After cultivation in MEFM for 7 days, MEFs and TTFs were analyzed for GFP expression by flow cytometry.
For flow cytometry analyses, cells were harvested, resuspended in FACS buffer (PBS supplemented with 3% FBS and 5 mM EDTA), filtered through a 50 μm cell strainer and analyzed using the 13-color LCR Fortessa FACS analyzer (Becton Dickinson).

[2] = biological target: organic cation transporter 2 (Oct2) (Mus musculus, UniProt O70577); settings: 6 μg/ml cisplatin and 1 mM cimetidine versus cisplatin alone
Method: Drug treated cells and untreated controls were stained with 1 μg/ml DAPI (Invitrogen, D1306) for 5 minutes and fluorescence was measured via flow cytometry using the 405 nm laser for excitation. Dead cells were identified by comparing emission of DAPI stained cell and unstained controls using a 450/50 nm band pass filter. For Kim-1 expression analysis MEFs and iRECs were treated with Gentamicin (1 mg/ml for 48 h), stained for Kim-1 (Miltenyi Biiotec, 130-106-024) and analyzed by flow cytometry. […] Cells were harvested and analyzed as described above. Experiments were performed in triplicates and repeated three times.

iRECs [3] = test: Cytotoxicity assay (dead/apoptotic cells by DAPI flow cytometry) in iRECs versus MEFs; format: cell-based; settings: Cisplatin 6 μg/ml 24 h; Tacrolimus 40 μM 24 h; Gentamicin 1 mg/ml 48 h
Method: (§1) Cells were harvested and analyzed as described above. Experiments were performed in triplicates and repeated three times.

iRECs [4] = test: Kim-1 expression analysis by flow cytometry after drug treatment; format: cell-based, mouse; settings: Gentamicin 1 mg/ml for 48 h
Method: as §1

organic cation transporter 2 (Oct2), sequence (O70577 whole entry): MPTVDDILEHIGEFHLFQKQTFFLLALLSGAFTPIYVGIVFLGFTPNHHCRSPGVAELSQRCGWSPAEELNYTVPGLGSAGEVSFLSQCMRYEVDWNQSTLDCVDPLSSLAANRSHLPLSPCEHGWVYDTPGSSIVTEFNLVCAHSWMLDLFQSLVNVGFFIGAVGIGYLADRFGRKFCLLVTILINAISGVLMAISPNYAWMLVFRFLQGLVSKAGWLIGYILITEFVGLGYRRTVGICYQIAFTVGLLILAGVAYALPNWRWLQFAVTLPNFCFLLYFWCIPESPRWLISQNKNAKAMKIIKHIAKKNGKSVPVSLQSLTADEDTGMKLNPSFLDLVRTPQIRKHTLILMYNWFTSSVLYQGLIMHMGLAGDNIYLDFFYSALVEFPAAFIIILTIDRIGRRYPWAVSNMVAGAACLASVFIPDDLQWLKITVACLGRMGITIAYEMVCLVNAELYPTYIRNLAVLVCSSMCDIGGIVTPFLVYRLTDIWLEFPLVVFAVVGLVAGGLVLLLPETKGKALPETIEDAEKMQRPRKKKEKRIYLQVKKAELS

Row | Compound | effect on the percentage of GFP-positive cells [1] | further results
1 | Nc1ncn([C@@H]2O[C@H](CO)[C@@H](O)[C@H]2O)c(=O)n1 [5 azacytidine, 5-azacytidine] | did not have an effect | –
2 | Cc1c[nH]c(-c2cnc(NCCNc3ccc(C#N)cn3)nc2-c2ccc(Cl)cc2Cl)n1 [CHIR99021] | did not have an effect | –
3 | CN/C(=N/CCSCc1nc[nH]c1C)NC#N [Cimetidine] | – | cisplatin induced toxicity in iRECs [2]: decreased
4 | O=C1O[C@H]([C@@H](O)CO)C(O)=C1O [Vitamin C] | did not have an effect | –
5 | CCCC(CCC)C(=O)O [valproic acid] | did not have an effect | –
6 | Gentamicin | – | rate of apoptosis in treated iRECs compared to MEFs (iRECs [3]): significantly higher; Kidney injury molecule 1 (KIM1) in iRECs (iRECs [4]): markedly increased
